Data published in patent publication US20080221116A1, “ISOXAZOLINE ALPHA 1a/1d ADRENORECEPTOR ANTAGONISTS” (priority 2006, published 2008).
Several values for one entry are separate records, joined by “and”; a condition that tells them apart may be missing. Identical values can stand only once. Like-named read-outs stand apart in the source and are kept apart here.

What was measured:
Conditions in all cases: COS-7 membranes
[1] = biological target: T1, α1b-AR (Homo sapiens, UniProt P35368); test: α1-Adrenergic Receptor Binding Assay, 125I-HEAT radio-ligand binding, transfected COS-7 cell membranes, α1b subtype
T1 construct: expressed in transfected cells; host or cells: COS-7 cells (African Green monkey kidney), membranes
T1 sequence (P35368 1-520): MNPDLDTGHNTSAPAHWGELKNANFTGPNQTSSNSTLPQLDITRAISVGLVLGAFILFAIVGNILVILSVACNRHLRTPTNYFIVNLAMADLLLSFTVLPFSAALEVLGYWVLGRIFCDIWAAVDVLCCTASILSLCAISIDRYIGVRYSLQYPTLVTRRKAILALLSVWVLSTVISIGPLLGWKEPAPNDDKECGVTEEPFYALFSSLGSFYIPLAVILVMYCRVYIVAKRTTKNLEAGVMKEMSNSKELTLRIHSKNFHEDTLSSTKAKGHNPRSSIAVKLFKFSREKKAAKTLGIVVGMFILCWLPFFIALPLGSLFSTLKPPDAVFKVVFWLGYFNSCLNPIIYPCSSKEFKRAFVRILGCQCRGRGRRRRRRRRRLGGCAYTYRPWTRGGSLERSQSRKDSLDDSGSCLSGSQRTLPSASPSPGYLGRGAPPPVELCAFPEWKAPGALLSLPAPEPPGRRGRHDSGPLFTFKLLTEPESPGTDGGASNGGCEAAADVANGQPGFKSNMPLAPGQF
Protocol: (§1) Membranes were prepared from COS-7 cells (African Green monkey kidney SV40-transformed cells) that had been transfected with one of the three α1-AR subtypes by the following method: COS cells from ten 100 mm tissue culture plates were scraped into a 5 ml volume of TE (a mixture of 50 mM tris(hydroxymethyl)aminomethane hydrochloride (Tris-HCl) and 5 mM ethylenediaminetetraacetic acid (EDTA) at pH 7.4). The cell suspension was disrupted with a Brinkman Polytron (at a setting of 8) for 10 sec. The disrupted cells were centrifuged at 1000×g for 10 min at 4° C. Supernatants were centrifuged at 34,500×g for 20 min at 4° C. The membrane pellets were suspended in a 2 ml volume of TNE (a mixture of 50 mM Tris-HCl, 5 mM EDTA and 150 mM NaCl at pH7.4). An aliquot of the membrane suspension was stored at −70° C. until use. The protein concentration was determined using a BioRad “DC” protein assay kit following membrane solubilization with Triton X-100.
(§2) Triplicate determinations of radio-ligand binding in the presence of increasing concentrations of testing compound were made. The reagents were added to 96-well polypropylene plate wells. Each assay well contained 140 μL TNE, 25 μL 125′-2-(β-4-hydroxyphenyl)ethylaminomethyltetralone (^125I-HEAT) (specific activity 2200 Ci/mmol, Dupont-New England Nuclear, […] final), 10 μL testing compound dissolved in dimethyl sulfoxide (DMSO) ([…] to 10 μM in half-log increments, final), and 25 μL appropriate α1-AR membrane subtype suspension in TNE (0.5 ng/μL for the α1a and α1b subtypes and 13 ng/μL for the α1d subtype). The plate was incubated at rt for 1 hr. The contents of the wells were filtered through a glass filter (type C) (GF/C) membrane Unifilter plate (Packard Instruments) using the Packard Filtermate cell harvester. The filter plates were dried in a vacuum oven for 30 min at 40° C. 25 μL Microscint 20 liquid scintillation fluid (Packard Instuments) was added to each well. The radioactive content was analyzed in the TopCount microplate scintillation counter (Packard Instruments).
(§3) The Ki values (in nM) shown in Table 1 were determined using GraphPad Prism software.

[2] = biological target: T2, α1a-AR (Homo sapiens, UniProt P35348); test: α1-Adrenergic Receptor Binding Assay, 125I-HEAT radio-ligand binding, transfected COS-7 cell membranes, α1a subtype
T2 construct: expressed in transfected cells; host or cells: COS-7 cells (African Green monkey kidney), membranes
T2 sequence (P35348 1-466): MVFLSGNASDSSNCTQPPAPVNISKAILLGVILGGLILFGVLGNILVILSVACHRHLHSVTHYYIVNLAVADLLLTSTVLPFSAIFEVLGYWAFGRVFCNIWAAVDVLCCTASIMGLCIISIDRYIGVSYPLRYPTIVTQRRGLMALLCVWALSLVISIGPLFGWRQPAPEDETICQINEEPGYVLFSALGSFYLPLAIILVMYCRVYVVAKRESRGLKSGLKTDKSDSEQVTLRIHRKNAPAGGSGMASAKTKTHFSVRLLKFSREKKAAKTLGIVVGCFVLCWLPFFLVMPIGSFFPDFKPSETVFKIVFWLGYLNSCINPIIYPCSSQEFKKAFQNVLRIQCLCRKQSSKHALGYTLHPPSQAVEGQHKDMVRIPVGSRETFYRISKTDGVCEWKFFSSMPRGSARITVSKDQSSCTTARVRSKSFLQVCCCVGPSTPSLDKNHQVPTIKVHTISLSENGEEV
Protocol: as §1, §2, §3

[3] = biological target: T3, α1d-AR (Homo sapiens, UniProt P25100); test: α1-Adrenergic Receptor Binding Assay, 125I-HEAT radio-ligand binding, transfected COS-7 cell membranes, α1d subtype
T3 construct: expressed in transfected cells; host or cells: COS-7 cells (African Green monkey kidney), membranes
T3 sequence (P25100 1-572): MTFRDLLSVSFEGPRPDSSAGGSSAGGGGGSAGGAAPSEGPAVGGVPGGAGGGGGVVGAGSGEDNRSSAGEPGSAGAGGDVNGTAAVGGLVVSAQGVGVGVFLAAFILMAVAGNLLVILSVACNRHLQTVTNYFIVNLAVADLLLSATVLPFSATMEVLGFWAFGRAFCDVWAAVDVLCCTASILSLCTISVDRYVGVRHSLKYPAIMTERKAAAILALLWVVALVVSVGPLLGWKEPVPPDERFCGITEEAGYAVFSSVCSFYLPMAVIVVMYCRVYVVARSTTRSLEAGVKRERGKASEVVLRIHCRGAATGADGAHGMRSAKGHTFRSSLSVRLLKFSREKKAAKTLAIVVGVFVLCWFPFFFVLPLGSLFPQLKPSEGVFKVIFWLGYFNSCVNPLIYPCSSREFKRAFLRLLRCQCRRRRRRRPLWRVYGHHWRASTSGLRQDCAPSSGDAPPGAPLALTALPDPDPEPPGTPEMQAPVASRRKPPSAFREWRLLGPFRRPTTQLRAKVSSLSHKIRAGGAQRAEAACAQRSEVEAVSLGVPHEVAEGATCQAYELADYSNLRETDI
Protocol: as §1, §2, §3

[4] = average value, read-out: Alpha 1 Ki α1b (1) Average Value
[5] = individual values, read-out: Alpha 1 Ki α1b (2) Individual Values
[6] = average value, read-out: Alpha 1 Ki α1a (1) Average Value
[7] = individual values, read-out: Alpha 1 Ki α1a (2) Individual Values
[8] = average value, read-out: Alpha 1 Ki α1d (1) Average Value
[9] = individual values, read-out: Alpha 1 Ki α1d (2) Individual Values

| SMILES | Ki [1, 4] | Ki [1, 5] | Ki [2, 6] | Ki [2, 7] | Ki [3, 8] | Ki [3, 9] |
| --- | --- | --- | --- | --- | --- | --- |
| CC(C)Oc1ccccc1N1CCN(CC2CC(C(=O)N3CCc4ccc(N)cc43)=NO2)CC1 (stereo not shown) [Compound 14, (6-amino-2,3-dihydro-indol-1-yl)-{5-[4-(2-isopropoxy-phenyl)-piperazin-1-ylmethyl]-4,5-dihydro-isoxazol-3-yl}-methanone] | 141 nM | 141 nM | 2 nM | 2 nM | 2.8 nM | 2.8 nM |
| CC(C)Oc1ccccc1N1CCN(CC2CC(CN3CCCCC3=O)=NO2)CC1 (stereo not shown) [Compound 1, 1-{5-[4-(2-isopropoxy-phenyl)-piperazin-1-ylmethyl]-4,5-dihydro-isoxazol-3-ylmethyl}-piperidin-2-one] | 82 nM | 82 nM | 0.96 nM | 0.96 nM | 8.5 nM | 8.5 nM |
| CC(C)Oc1ccccc1N1CCN(CC2CC(C(=O)N3CC(C)(C)c4cc(Br)ccc43)=NO2)CC1 (stereo not shown) [Compound 19, (5-bromo-3,3-dimethyl-2,3-dihydro-indol-1-yl)-{5-[4-(2-isopropoxy-phenyl)-piperazin-1-ylmethyl]-4,5-dihydro-isoxazol-3-yl}-methanone] | 280 nM | 302 nM and 258 nM | 13 nM | 13 nM | 0.6 nM | 0.4 nM and 0.8 nM |
| Cc1ccc2c(c1)CCN2C(=O)C1=NOC(CN2CCN(c3ccccc3OC(C)C)CC2)C1 (stereo not shown) [Compound 25, {5-[4-(2-isopropoxy-phenyl)-piperazin-1-ylmethyl]-4,5-dihydro-isoxazol-3-yl}-(5-methyl-2,3-dihydro-indol-1-yl)-methanone] | 71 nM | 71 nM | 3.5 nM | 3.5 nM | 0.12 nM | 0.12 nM |
| CC(C)Oc1ccccc1N1CCN(CC2CC(C(=O)N3CCC(C(=O)c4ccccc4)CC3)=NO2)CC1 (stereo not shown) [Compound 21, (4-benzoyl-piperidin-1-yl)-{5-[4-(2-isopropoxy-phenyl)-piperazin-1-ylmethyl]-4,5-dihydro-isoxazol-3-yl}-methanone] | 224 nM | 288 nM and 160 nM | 5.25 nM | 3.2 nM and 7.3 nM | 7.65 nM | 5.5 nM and 9.8 nM |
| CC(C)Oc1ccccc1N1CCN(CC2CC(C(=O)N3CCC(C(=O)c4ccc(F)cc4)CC3)=NO2)CC1 (single isomer, unassigned) [Compound 41, [4-(4-fluoro-benzoyl)-piperidin-1-yl]-{(5R*)-5-[4-(2-isopropoxy-phenyl)-piperazin-1-ylmethyl]-4,5-dihydro-isoxazol-3-yl}-methanone] | 1690 nM | 1690 nM | 240 nM | 240 nM | 58.1 nM | 58.1 nM |
| CC(C)Oc1ccccc1N1CCN(CC2CC(CN3CCCCC3=O)=NO2)CC1 (single isomer, unassigned) [Compound 2, 1-{(5R*)-5-[4-(2-isopropoxy-phenyl)-piperazin-1-ylmethyl]-4,5-dihydro-isoxazol-3-ylmethyl}-piperidin-2-one] | 53.5 nM | 79 nM and 41 nM and 56 nM and 38 nM | 0.79 nM | 1 nM and 0.7 nM and 0.86 nM and 0.6 nM | 4.5 nM | 5.2 nM and 4.7 nM and 5.8 nM and 2.3 nM |
| CC(C)Oc1ccccc1N1CCN(CC2CC(C(=O)N3CCc4cc(Br)ccc43)=NO2)CC1 (stereo not shown) [Compound 13, (5-bromo-2,3-dihydro-indol-1-yl)-{5-[4-(2-isopropoxy-phenyl)-piperazin-1-ylmethyl]-4,5-dihydro-isoxazol-3-yl}-methanone] | 191 nM | 402 nM and 147 nM and 134 nM and 82.8 nM | 2.48 nM | 1.31 nM and 2.4 nM and 3.7 nM and 2.5 nM | 6.08 nM | – |

Results, then the compound that gave them:

| Ki [1, 4] | Ki [1, 5] | Ki [2, 6] | Ki [2, 7] | Ki [3, 8] | Ki [3, 9] | SMILES |
| --- | --- | --- | --- | --- | --- | --- |
| 249 nM | 334 nM and 174 nM and 239 nM | 1.81 nM | 1.02 nM and 1.7 nM and 2.7 nM | 17.8 nM | 29 nM and 18 nM and 6.26 nM | CC(C)Oc1ccccc1N1CCN(CC2CC(C(=O)N3CCCCC3)=NO2)CC1 (stereo not shown) [Compound 12, {5-[4-(2-isopropoxy-phenyl)-piperazin-1-ylmethyl]-4,5-dihydro-isoxazol-3-yl}-piperidin-1-yl-methanone] |
| 5000 nM | 5000 nM | 10 nM | 10 nM | 178 nM | 178 nM | CC(C)Oc1ccccc1N1CCN(CC2CC(CN3CCCCC3)=NO2)CC1 (stereo not shown) [Compound 5, 1-(2-isopropoxy-phenyl)-4-(3-piperidin-1-ylmethyl-4,5-dihydro-isoxazol-5-ylmethyl)-piperazine] |
| 1060 nM | 1060 nM | 73.1 nM | 73.1 nM | 297 nM | 297 nM | CC(C)Oc1ccccc1N1CCN(CC2CC(C(=O)N3CCOCC3)=NO2)CC1 (single isomer, unassigned) [Compound 45, {(5R*)-5-[4-(2-Isopropoxy-phenyl)-piperazin-1-ylmethyl]-4,5-dihydro-isoxazol-3-yl}-morpholin-4-yl-methanone] |
| 107 nM | 90 nM and 145 nM and 92 nM and 87.6 nM and 121 nM | 2.12 nM | 1.4 nM and 3.4 nM and 3.1 nM and 1.9 nM and 0.8 nM | 1.3 nM | – | CC(C)Oc1ccccc1N1CCN(CC2CC(C(=O)N3CCc4ccccc43)=NO2)CC1 (stereo not shown) [Compound 10, (2,3-dihydro-indol-1-yl)-{5-[4-(2-isopropoxy-phenyl)-piperazin-1-ylmethyl]-4,5-dihydro-isoxazol-3-yl}-methanone] |
| 191 nM | – | 38.2 nM | – | 90.2 nM | – | CC(C)Oc1ccccc1N1CCN(CC2CC(C(=O)N3CCc4ccccc43)=NO2)CC1 (single isomer, unassigned) [Compound 36, (2,3-dihydro-indol-1-yl)-{(5S*)-5-[4-(2-isopropoxy-phenyl)-piperazin-1-ylmethyl]-4,5-dihydro-isoxazol-3-yl}-methanone] |
